According to US20100041089A1, “IMPROVED METHOD FOR DETECTING CHEMICAL […]” (priority 2006, published 2010):

Tested on: yeast genes (expressed mRNA)
Assay: DNA chip measurement of expressed mRNA of yeast genes after culture with a toxic chemical substance
Type: cell-based, Saccharomyces cerevisiae S288C
Experimental: Yeast (Saccharomyces cerevisiae S288C (a SUC2mal mel gap2 CUP1)) were cultured at 25° C. on YPD medium (yeast extract 1%, polypeptone 2%, glucose 2%). One of toxic chemical substances was added to the cell at logarithmic growth phase, and the cell was further cultured for two hours. Cell was cultured without any chemical substance in the same condition, and was used as a control. Concentrations of the chemical substances were defined to inhibit the growth of the yeast but not lead to death.
After the completion of cultivation, the culture was centrifuged to collect the cells. To the cells, sodium acetate buffer (50 mM sodium acetate, 10 mM EDTA, 1% SDS) was added, and the mixture was shaken at 65° C. for five minutes, followed by returning to room temperature, and obtaining the supernatant, which procedure was repeated two times. To the supernatant, ½ amount of a solution of phenol/chloroform (1:1) was added, and the mixture was centrifuged to give a supernatant, an equal amount of chloroform was added, and the mixture was centrifuged to give a supernatant. To the supernatant, an equal amount of isopropanol containing 0.3 M sodium acetate was added, and the mixture was allowed to stand at room temperature for 30 minutes, after which the mixture was centrifuged to give sediment of the whole RNAs. Seventy % ethanol was added to the sediment, and the mixture was again centrifuged to give sediment, which was then dried and dissolved in water. mRNA was isolated from the whole RNAs as followings. In view of the fact that a poly A chain is attached to the 3′ terminus of mRNA, a polynucleotide having a poly T structure which was immobilized on the surface of latex beads was used to trap the mRNA, and then the mRNA was washed and eluted with spine column (Oligotex-dT30<Super>mRNA Purification Kit, Takara). Reverse transcription of the mRNA was conducted with a reverse transcriptase (Super Script II Reverse Transcriptase; catalogue No. 18064-014, GibcoBRL) using fluorescence-labeled nucleotides to give cDNAs that were introduced with Cy3-dUTP or Cy5-dUTP during the reverse transcription.
The labeled cDNAs were dissolved in TE buffer (10 mM Tris-HCl/1 mM EDTA, pH 8.0), and the solution was dropped on the DNA chip containing the whole genes of yeast (DNA Chip Research Inc. Japan) so that the cDNAs were hybridized on the DNA chip at 65° C. for over 12 hours. The fluoresces intensity of the DNA chip was read with a scanner, and the ratio relative to the fluorescence intensity resulting from the absence of chemical substance was estimated as the following, which is shown in Tables 1 to 9.
In the Tables, “Intensity” indicated in the rightmost column is a value of the level of expressed mRNA of each gene in control cells as divided by the average level of the expressions of the whole genes. A gene of which mRNA level is lower in control, and is higher in cases of addition of chemical substance, is especially useful in the detection of toxic substances.
Here, when a ratio of an amount of mRNA expressed in the presence of the chemical substance to an amount of mRNA expressed in the absence of the chemical substance is two or more, then it is considered significant.

Q: `CCCCCCCCCCCCOS(=O)(=O)[O-].[Na+]` [(18), Sodium lauryl sulfate] was tested. Which “The level of expressed mRNA in the presence of chemical substance/The level of expressed mRNA in the absence of chemical substance” value (yeast gene YFL032W, cultured two hours with substance) did it give?
A: 0.8

Q: And the “The level of expressed mRNA in the presence of chemical substance/The level of expressed mRNA in the absence of chemical substance” value (yeast gene YFR046C, cultured two hours with substance)?
A: 1.2

Q: What about the “The level of expressed mRNA in the presence of chemical substance/The level of expressed mRNA in the absence of chemical substance” value (yeast gene YGL006W (transport facilitation protein gene)) of the same compound?
A: 4.1

Q: What about the “The level of expressed mRNA in the presence of chemical substance/The level of expressed mRNA in the absence of chemical substance” value (yeast gene YGL037C, cultured two hours with substance) of the same compound?
A: 2.6

Q: And the “The level of expressed mRNA in the presence of chemical substance/The level of expressed mRNA in the absence of chemical substance” value (yeast gene YGL047W, cultured two hours with substance)?
A: 1.2

Q: What about the “The level of expressed mRNA in the presence of chemical substance/The level of expressed mRNA in the absence of chemical substance” value (yeast gene YGL053W, cultured two hours with substance) of the same compound?
A: 3.7

Q: What about the “The level of expressed mRNA in the presence of chemical substance/The level of expressed mRNA in the absence of chemical substance” value (yeast gene YGL121C, cultured two hours with substance) of the same compound?
A: 3.5

Q: What about the “The level of expressed mRNA in the presence of chemical substance/The level of expressed mRNA in the absence of chemical substance” value (yeast gene YGL136C, cultured two hours with substance) of the same compound?
A: 1.1

Q: And the “The level of expressed mRNA in the presence of chemical substance/The level of expressed mRNA in the absence of chemical substance” value (yeast gene YGL199C, cultured two hours with substance)?
A: 1.0

Q: What about the “The level of expressed mRNA in the presence of chemical substance/The level of expressed mRNA in the absence of chemical substance” value (yeast gene YGR008C, cultured for two hours with substance) of the same compound?
A: 4.2

Q: And the “The level of expressed mRNA in the presence of chemical substance/The level of expressed mRNA in the absence of chemical substance” value (yeast gene YGR026W, cultured two hours with the chemical substance)?
A: 1.2

Q: What about the “The level of expressed mRNA in the presence of chemical substance/The level of expressed mRNA in the absence of chemical substance” value (yeast gene YGR035C, cultured two hours with substance) of the same compound?
A: 4.3

Q: And the “The level of expressed mRNA in the presence of chemical substance/The level of expressed mRNA in the absence of chemical substance” value (yeast gene YGR101W, cultured two hours with substance)?
A: 1.1

Q: What about the “The level of expressed mRNA in the presence of chemical substance/The level of expressed mRNA in the absence of chemical substance” value (yeast gene YGR110W, cultured two hours with substance) of the same compound?
A: 2.1

Q: What about the “The level of expressed mRNA in the presence of chemical substance/The level of expressed mRNA in the absence of chemical substance” value (yeast gene YGR130C, cultured two hours with substance) of the same compound?
A: 1.6

Q: And the “The level of expressed mRNA in the presence of chemical substance/The level of expressed mRNA in the absence of chemical substance” value (yeast gene YGR154C, cultured two hours with substance)?
A: 1.2

Q: And the “The level of expressed mRNA in the presence of chemical substance/The level of expressed mRNA in the absence of chemical substance” value (yeast gene YGR213C)?
A: 8.5

Q: What about the “The level of expressed mRNA in the presence of chemical substance/The level of expressed mRNA in the absence of chemical substance” value (yeast gene YGR221C, cultured two hours with substance) of the same compound?
A: 1.3

Q: And the “The level of expressed mRNA in the presence of chemical substance/The level of expressed mRNA in the absence of chemical substance” value (yeast gene YGR244C, cultured for two hours with substance)?
A: 3.1

Q: And the “The level of expressed mRNA in the presence of chemical substance/The level of expressed mRNA in the absence of chemical substance” value (yeast gene YHR029C, cultured two hours with substance)?
A: 2.1

Q: What about the “The level of expressed mRNA in the presence of chemical substance/The level of expressed mRNA in the absence of chemical substance” value (yeast gene YHR138C, cultured two hours with substance) of the same compound?
A: 7.1

Q: What about the “The level of expressed mRNA in the presence of chemical substance/The level of expressed mRNA in the absence of chemical substance” value (yeast gene YHR199C, cultured two hours with substance) of the same compound?
A: 0.9

Q: What about the “The level of expressed mRNA in the presence of chemical substance/The level of expressed mRNA in the absence of chemical substance” value (yeast gene YIL023C, cultured two hours with substance) of the same compound?
A: 1.0

Q: And the “The level of expressed mRNA in the presence of chemical substance/The level of expressed mRNA in the absence of chemical substance” value (yeast gene YIL024C, cultured two hours with substance)?
A: 1.0

Q: And the “The level of expressed mRNA in the presence of chemical substance/The level of expressed mRNA in the absence of chemical substance” value (yeast gene YIL041W, cultured two hours with substance)?
A: 1.1

Q: What about the “The level of expressed mRNA in the presence of chemical substance/The level of expressed mRNA in the absence of chemical substance” value (yeast gene YIL087C, cultured two hours with substance) of the same compound?
A: 1.6

Q: And the “The level of expressed mRNA in the presence of chemical substance/The level of expressed mRNA in the absence of chemical substance” value (yeast gene YIL117C, cultured two hours with substance)?
A: 2.6

Q: What about the “The level of expressed mRNA in the presence of chemical substance/The level of expressed mRNA in the absence of chemical substance” value (yeast gene YJL057C, cultured two hours with substance) of the same compound?
A: 1.5

Q: And the “The level of expressed mRNA in the presence of chemical substance/The level of expressed mRNA in the absence of chemical substance” value (yeast gene YJL066C, cultured two hours with substance)?
A: 1.5

Q: What about the “The level of expressed mRNA in the presence of chemical substance/The level of expressed mRNA in the absence of chemical substance” value (yeast gene YJL082W, cultured two hours with substance) of the same compound?
A: 0.3

Q: What about the “The level of expressed mRNA in the presence of chemical substance/The level of expressed mRNA in the absence of chemical substance” value (yeast gene YJL108C, cultured two hours with substance) of the same compound?
A: 0.9

Q: What about the “The level of expressed mRNA in the presence of chemical substance/The level of expressed mRNA in the absence of chemical substance” value (yeast gene YJL149W, cultured two hours with substance) of the same compound?
A: 1.2

Q: And the “The level of expressed mRNA in the presence of chemical substance/The level of expressed mRNA in the absence of chemical substance” value (yeast gene YJL151C, cultured two hours with substance)?
A: 2.4

Q: What about the “The level of expressed mRNA in the presence of chemical substance/The level of expressed mRNA in the absence of chemical substance” value (yeast gene YJL152W, cultured two hours with substance) of the same compound?
A: 1.7

Q: What about the “The level of expressed mRNA in the presence of chemical substance/The level of expressed mRNA in the absence of chemical substance” value (yeast gene YJL161W, cultured two hours with substance) of the same compound?
A: 2.1

Q: What about the “The level of expressed mRNA in the presence of chemical substance/The level of expressed mRNA in the absence of chemical substance” value (yeast gene YJL166W, mitochondria-located protein gene, cultured two hours with substance) of the same compound?
A: 4.0

Q: What about the “The level of expressed mRNA in the presence of chemical substance/The level of expressed mRNA in the absence of chemical substance” value (yeast gene YJL171C, cultured two hours with substance) of the same compound?
A: 2.9

Q: What about the “The level of expressed mRNA in the presence of chemical substance/The level of expressed mRNA in the absence of chemical substance” value (yeast gene YJL186W, cultured two hours with substance) of the same compound?
A: 0.8

Q: And the “The level of expressed mRNA in the presence of chemical substance/The level of expressed mRNA in the absence of chemical substance” value (yeast gene YJR008W, cultured two hours with substance)?
A: 2.7
